Target: Ras-related protein Rab-7a (Canis lupus familiaris, UniProt P18067)
Experiment: analogs blocking nucleotide binding to wildtype Rab7 – biochemical, oxadiazole analogs, multiplex bead flow cytometry, SAR follow-up (AID 2031)
Details: inactive by the depositor's call

Chain of Ras-related protein Rab-7a (P18067 whole entry): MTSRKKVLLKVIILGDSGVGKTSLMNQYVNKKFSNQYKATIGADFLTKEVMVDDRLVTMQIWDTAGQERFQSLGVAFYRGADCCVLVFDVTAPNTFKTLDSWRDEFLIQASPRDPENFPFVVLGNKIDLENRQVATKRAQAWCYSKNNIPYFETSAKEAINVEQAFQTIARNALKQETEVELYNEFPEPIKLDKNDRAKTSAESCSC

| Structure (SMILES) | Ki [nM] |
| --- | --- |
| COc1ccc(-c2noc(CCC(=O)N3CCN(c4cccc(C)c4C)CC3)n2)cc1 [1-[4-(2,3-dimethylphenyl)-1-piperazinyl]-3-[3-(4-methoxyphenyl)-1,2,4-oxadiazol-5-yl]-1-propanone] | 100 |
| Cc1ccc(C)c(N2CCN(C(=O)CCc3nc(-c4ccc(Br)cc4)no3)CC2)c1 [UNM-0000306072] | 100 |

Source: BindingDB's records for doi:10.7270/Q29885F3 (Nmmlsc, 2009)
